Experimental data published in patent US20250230138A1, “COMPOUNDS HAVING A T-STRUCTURE FORMED BY AT LEAST FOUR CYCLES FOR USE IN THE TREATMENT OF CANCER AND OTHER INDICATIONS” (TheRas, Inc., priority 2022, published 2025).
Read-outs that look alike come from different tables or passages of the source.

What was measured:
[1] = molecular target: Cys242 in human PIK3CA (157-299) (Homo sapiens (Human), UniProt P42336); test: Covalent modification assay using MALDI-TOF MS; format: biochemical; details: 4 h reaction time point
Procedure, shortened: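 PIK3CA (157-299), 3.33 or 1 μM in 20 mM HEPES, 150 mM NaCl, 2 mM MgCl2, pH 7.3, was incubated with compound at room temperature in the dark for 15 min, 30 min, 2 h or 4 h. Linear MALDI-TOF read-out; % modification = adduct peak height over summed heights of all protein species.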

pAKT in BT474 cells = test: Cell-based pAKT HTRF assay in BT474 cells; details: BT474 cells, 4 hr incubation, read-out: pAKT inhibition IC50 in BT474 cells
Procedure, shortened: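 Cells are seeded on day 1 and dosed on day 2 with a 9-point curve (3 μM top, 3-fold). After 4 hr they are lysed and the lysate is mixed with d2- and Eu Cryptate-labelled antibodies. HTRF is read after 4–24 h at room temperature.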

[2] = 3.33 μM protein target, 1:7.5 protein to compound ratio (compounds 1-852)
[3] = 1 μM protein target, 1:5 protein to compound ratio (compounds 853-1279)
[4] = Homo sapiens, BT-474, Compounds 10-999

Chain of Cys242 in human PIK3CA (157-299) (P42336 157-299): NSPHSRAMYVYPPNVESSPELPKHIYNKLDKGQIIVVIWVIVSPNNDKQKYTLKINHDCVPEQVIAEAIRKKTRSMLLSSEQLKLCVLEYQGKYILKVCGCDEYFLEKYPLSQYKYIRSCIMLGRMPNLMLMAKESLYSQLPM

Row | Structure (SMILES) | % of modification [1, 2] | IC50 (pAKT in BT474 cells; Compounds 10-999) [µM] | % of modification [1, 3] | IC50 (pAKT in BT474 cells; Compounds 1000-1279) [µM] | IC50 (pAKT in BT474 cells; [4]) [µM]
1 | C=CC(=O)N1CC(n2cc(-c3nc(-c4ccc5c(c4)CCN(C)C5)c4ccsc4c3-c3ccc(F)cc3OCCOC)cn2)C1 [Compound 78] | A (percent of modification of PIK3CA protein ≥75%) | < 0.1 |  |  | 
2 | C=CC(=O)N1Cc2cc(-c3nc(-c4ccc5ncn(C)c5c4)c4ccsc4c3-c3c(F)cc(F)cc3OCC(C)O)nn2CC1C (centres unmarked) [Compound 765] | A (percent of modification of PIK3CA protein ≥75%) | < 0.1 |  |  | 
3 | C=CC(=O)N1CCn2nc(-c3nc(-c4ccc(=O)n(CC(F)F)c4)c4ccsc4c3-c3c(F)cc(F)cc3OCCO)cc2C1C (centres unmarked) [Compound 981] |  | < 0.1 | A (percent of modification of PIK3CA protein ≥75%) |  | 
4 | C=CC(=O)N1CCc2ccc(-c3nc(-c4ccc5c(c4)CNC5=O)c4ccsc4c3-c3c(F)cc(F)cc3OCCO)cc2C1 [Compound 950] |  | 0.1 to 1 | D (percent of modification <25%) |  | 
5 | C=CC(=O)N1Cc2cc(-c3nc(-c4ccc5c(cnn5C)c4)c4ccsc4c3-c3c(F)cc(F)cc3OC[C@@H](C)O)nn2[C@@H](C)C1 [Compound 608] | D (percent of modification <25%) | 0.1 to 1 |  |  | 
6 | C=CC(=O)N1Cc2cc(-c3nc(-c4ccc5c(c4)CNC(=O)C5)c4ccsc4c3-c3c(F)cc(F)cc3OCCO)nn2CC1C (centres unmarked) [Compound 927] |  | < 0.1 | A (percent of modification of PIK3CA protein ≥75%) |  | 
7 | C=CC(=O)N1CCc2nc(-c3nc(N4CCN(S(C)(=O)=O)CC4)c4ccsc4c3-c3ccc(F)cc3OCCOC)sc2C1 [Compound 167] | B (50%<percent of modification <75%) | 0.1 to 1 |  |  | 
8 | C=CC(=O)N1Cc2cc(-c3nc(-c4ccc5c(c4)CNC5=O)c4ccsc4c3-c3c(F)cc(F)cc3OC[C@@H](C)O)nn2C[C@H]1C [Compound 756] | A (percent of modification of PIK3CA protein ≥75%) | < 0.1 |  |  | 
9 | C=CC(=O)N1CCn2nc(-c3nc(-c4ccc([C@H](NC)C(F)(F)F)cc4)c4ccsc4c3-c3c(F)cc(F)cc3OCCOC)cc2[C@H]1C (single isomer, unassigned) [Compound 1149] |  |  | A (percent of modification of PIK3CA protein ≥75%) | < 0.1 | 
10 | C=CC(=O)N1CCc2ncc(-c3nc(-c4ccc5c(c4)CNC(=O)C54CC4)c4ccsc4c3-c3c(F)cc(F)cc3OCCOC)cc2C1 [Compound 1192] |  |  | A (percent of modification of PIK3CA protein ≥75%) | < 0.1 | 
11 | C=CC(=O)N1CC(n2cc(-c3nc(-c4ccc5c(c4)CCNC5)c4ccnn4c3-c3ccc(F)cc3OC)cn2)C1 [Compound 169, 1-[3-[4-[7-(4-fluoro-2-methoxy-phenyl)-4-(1,2,3,4-tetrahydroisoquinolin-6-yl)pyrazolo[1,5-a]pyrazin-6-yl]pyrazol-1-yl]azetidin-1-yl]prop-2-en-1-one] | B (50%<percent of modification <75%) |  |  |  | 0.1 to 1
12 | C=CC(=O)N1CCn2nc(-c3nc(-c4ccc5c(c4)CCNC5)c4ccsc4c3-c3ccc(F)cc3OCCOC)nc2C1 [Compound 105, 1-[2-[7-[4-fluoro-2-(2-methoxyethoxy)phenyl]-4-(1,2,3,4-tetrahydroisoquinolin-6-yl)thieno[3,2-c]pyridin-6-yl]-6,8-dihydro-5H-[1,2,4]triazolo[1,5-a]pyrazin-7-yl]prop-2-en-1-one] | A (percent of modification of PIK3CA protein ≥75%) |  |  |  | < 0.1
13 | C=CC(=O)N1CCn2nc(-c3nc(-c4ccc5c(c4)CCN(C(C)C)C5)c4ccsc4c3-c3ccc(F)cc3OC(F)F)nc2C1 [Compound 218] | A (percent of modification of PIK3CA protein ≥75%) | < 0.1 |  |  | 
14 | C=CC(=O)N1Cc2cc(-c3nc(-c4ccc5c(c4)CCN(C)C5)c4ccsc4c3-c3c(F)cc(F)cc3OC(CF)CF)nn2C[C@H]1C [Compound 634, 1-[(6R)-2-[7-[2,4-difluoro-6-[2-fluoro-1-(fluoromethyl)ethoxy]phenyl]-4-(2-methyl-3,4-dihydro-1H-isoquinolin-6-yl)thieno[3,2-c]pyridin-6-yl]-6-methyl-6,7-dihydro-4H-pyrazolo[1,5-a]pyrazin-5-yl]prop-2-en-1-one] | A (percent of modification of PIK3CA protein ≥75%) |  |  |  | < 0.1
15 | C=CC(=O)N1CCn2nc(-c3nc(-c4ccc(C5CN(C)C5)cc4)c4ccsc4c3-c3c(F)cc(F)cc3OCCOC)cc2C1C (centres unmarked) [Compound 1057] |  |  | A (percent of modification of PIK3CA protein ≥75%) | < 0.1 | 
16 | C=CC(=O)N1CCc2nc(-c3nc(-c4ccc5c(c4)CN(C)CC5(F)F)c4ccsc4c3-c3c(F)cc(F)cc3OCCOC)sc2C1 [Compound 1276] |  |  | A (percent of modification of PIK3CA protein ≥75%) | 0.1 to 1 | 

Row | Structure (SMILES) | % of modification [1, 2] | IC50 (pAKT in BT474 cells; Compounds 10-999) [µM] | % of modification [1, 3] | IC50 (pAKT in BT474 cells; Compounds 1000-1279) [µM] | IC50 (pAKT in BT474 cells; [4]) [µM]
17 | C=CC(=O)N1CCn2nc(-c3nc(-c4ccc5c(cnn5C)c4)c4ccsc4c3-c3c(F)cc(F)cc3OC)cc2C1C (centres unmarked) [Compound 1111] |  |  | C (25%≤percent of modification <50%) | 0.1 to 1 | 
18 | C=CC(=O)N1CCn2nc(-c3nc(-c4ccc5cnn(C)c(=O)c5c4)c4ccsc4c3-c3c(F)cc(F)cc3OCCO)cc2[C@H]1C [Compound 899] |  | < 0.1 | A (percent of modification of PIK3CA protein ≥75%) |  | 
19 | C=CC(=O)N1CCn2nc(-c3nc(-c4cnn(C)c4)c4ccsc4c3-c3ccc(F)cc3OCCOC)nc2C1 [Compound 191] | A (percent of modification of PIK3CA protein ≥75%) | < 0.1 |  |  | 
20 | C=CC(=O)N1CCc2ncc(-c3nc(-c4ccc5c(c4)CCNC5)c4c(c3-c3ccc(F)cc3OC)CCC4)cc2C1 [Compound 89, 1-[3-[4-(4-fluoro-2-methoxy-phenyl)-1-(1,2,3,4-tetrahydroisoquinolin-6-yl)-6,7-dihydro-5H-cyclopenta[c]pyridin-3-yl]-7,8-dihydro-5H-1,6-naphthyridin-6-yl]prop-2-en-1-one] | A (percent of modification of PIK3CA protein ≥75%) |  |  |  | 0.1 to 1
21 | C=CC(=O)N1CCn2nc(-c3nc(-c4ccc5c(c4)CCNC5=O)c4ccsc4c3-c3ccc(F)cc3OC3CC3)cc2C1 [Compound 302] | A (percent of modification of PIK3CA protein ≥75%) | < 0.1 |  |  | 
22 | C=CC(=O)N1CCn2nc(-c3nc(-c4ccc5c(c4)CCN(C)C5)c4ccsc4c3-c3c(F)cc(F)cc3OC3CC3)cc2[C@@H]1C [Compound 548] | A (percent of modification of PIK3CA protein ≥75%) | < 0.1 |  |  | 
23 | C=CC(=O)N1CCc2ncc(-c3nc(-c4cncc(C#N)c4)c4ccsc4c3-c3c(F)cc(F)cc3OCCOC)cc2C1 [Compound 376] | A (percent of modification of PIK3CA protein ≥75%) | < 0.1 |  |  | 
24 | C=CC(=O)N1CCc2cc(-c3nc(-c4ccc5cn(C)nc5c4)c4ccsc4c3-c3c(F)cc(F)cc3OCCOC)nn2CC1 [Compound 1027] |  |  | A (percent of modification of PIK3CA protein ≥75%) | < 0.1 | 
25 | C=CC(=O)N1Cc2cc(-c3nc(-c4ccc5c(c4)CCN(C)C5)c4ccsc4c3-c3c(F)cc(F)cc3OCC)nn2CC1C (centres unmarked) [Compound 503] | A (percent of modification of PIK3CA protein ≥75%) | < 0.1 |  |  | 
26 | C=CC(=O)N1CC[C@H](n2cc(-c3nc(-c4ccc5c(c4)CCN(C)C5)c4ccsc4c3-c3ccc(F)cc3OCCOC)cn2)C1 [Compound 67] | A (percent of modification of PIK3CA protein ≥75%) | < 0.1 |  |  | 
27 | C=CC(=O)N1CCc2nc(-c3nc(-c4ccc(=O)n(C)c4)c4ccsc4c3-c3ccc(F)cc3OCCOC)sc2C1 [Compound 164] | A (percent of modification of PIK3CA protein ≥75%) | < 0.1 |  |  | 
28 | C=CC(=O)N1CCn2nc(-c3nc(-c4cnc5c(c4)CN(CCCF)CC5)c4ccsc4c3-c3c(F)cc(F)cc3OCCOC)cc2C1C (centres unmarked) [Compound 1158] |  |  | A (percent of modification of PIK3CA protein ≥75%) | < 0.1 | 
29 | C/C=C/C(=O)N1CC(n2cc(-c3nc(-c4ccc5c(c4)CCNC5)c4ccsc4c3-c3ccc(F)cc3OC)cn2)C1 [Compound 129] | D (percent of modification <25%) | > 3 |  |  | 
30 | C=CC(=O)N1CCn2nc(-c3nc(-c4cnc5c(c4)CN(C)CC5)c4ccsc4c3-c3ccc(F)cc3OC)cc2C1 [Compound 288] | A (percent of modification of PIK3CA protein ≥75%) | < 0.1 |  |  | 
31 | C=C(F)C(=O)N1CCn2nc(-c3nc(-c4ccc5c(c4)CCN(C)C5)c4ccsc4c3-c3ccc(F)cc3OC(C)C)nc2C1 [Compound 255] | A (percent of modification of PIK3CA protein ≥75%) | 0.1 to 1 |  |  | 
